Laboratory results taken from ChEMBL document CHEMBL1201862, “PubChem BioAssay data set” (2004).
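Protocol summary: plate cells (96-well), add compound at 5 concentrations, incubate 48 h, interpolate endpoints linearly. Abbreviation: GI50, concentration required for 50% inhibition of growth.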 Active and inactive are the calls of the source. Rule as the data show it: active = GI50 up to about 1.1 µM and inactive = higher.

Assays:
Experiment in all cases: growth of human tumour cells (NCI), 48 h
[1] = test system: NCI-H460
[2] = test system: MDA-MB-435
[3] = test system: NCI-H23
[4] = test system: Malme-3M
[5] = test system: HCT-15
[6] = test system: DU-145
[7] = test system: U-251
[8] = test system: Hs-578T
[9] = test system: HOP-92
[10] = test system: HCT-116
[11] = test system: SN12C
[12] = test system: BT-549
[13] = test system: SR
[14] = test system: SK-OV-3
[15] = test system: A549
[16] = test system: HCC 2998
[17] = test system: NCI/ADR-RES
[18] = test system: RPMI-8226
[19] = test system: MOLT-4
[20] = test system: SNB-19
[21] = test system: HL-60
[22] = test system: SK-MEL-5
[23] = test system: SF-295
[24] = test system: NCI-H226
[25] = test system: UO-31
[26] = test system: OVCAR-5
[27] = test system: MDA-N
[28] = test system: SK-MEL-2
[29] = test system: TK-10
[30] = test system: SK-MEL-28
[31] = test system: OVCAR-4
[32] = test system: EKVX
[33] = test system: HOP-62
[34] = test system: HT-29
[35] = test system: IGROV-1
[36] = test system: CAKI-1
[37] = test system: SNB-75
[38] = test system: KM12
[39] = test system: LOX IMVI
[40] = test system: 786-0
[41] = test system: PC-3
[42] = test system: CCRF-CEM
[43] = test system: SW-620
[44] = test system: K562
[45] = test system: UACC-257
[46] = test system: SF-539
[47] = test system: COLO 205
[48] = test system: UACC-62
[49] = test system: SF-268
[50] = test system: RXF 393
[51] = test system: T47D
[52] = test system: MCF7
[53] = test system: ACHN
[54] = test system: NCI-H522
[55] = test system: M14
[56] = test system: A498
[57] = test system: OVCAR-8
[58] = test system: OVCAR-3
[59] = test system: MDA-MB-231

## COc1ccc2[nH]c3c(C)c4ccnc(NCCCN(C)CCCN)c4c(C)c3c2c1
[1]
  GI50: 91 nM (active)
[2]
  GI50: 195 nM (active)
[3]
  GI50: 202 nM (active)
[4]
  GI50: 310 nM (active)
[5]
  GI50: 258 nM
[6]
  GI50: 196 nM (active)
[7]
  GI50: 80.3 nM (active)
[8]
  GI50: 36.4 nM (active)
[9]
  GI50: 130 nM (active)
[10]
  GI50: 107 nM (active)
[11]
  GI50: 27.4 nM (active)
[12]
  GI50: 1760 nM (inactive)
[13]
  GI50: 186 nM (active)
[14]
  GI50: 838 nM (active)
[15]
  GI50: 44.2 nM (active)
[16]
  GI50: 159 nM (active)
[17]
  GI50: 394 nM (active)
[18]
  GI50: 281 nM (active)
[19]
  GI50: 111 nM (active)
[20]
  GI50: 213 nM (active)
[21]
  GI50: 120 nM (active)
[22]
  GI50: 178 nM (active)
[23]
  GI50: 214 nM (active)
[24]
  GI50: 45.8 nM (active)
[25]
  GI50: 207 nM (active)
[26]
  GI50: 176 nM (active)
[27]
  GI50: 214 nM (active)
[28]
  GI50: 336 nM (active)
[29]
  GI50: 166 nM (active)
[30]
  GI50: 719 nM (active)
[31]
  GI50: 80.9 nM (active)
[32]
  GI50: 225 nM (active)
[33]
  GI50: 109 nM (active)
[34]
  GI50: 42 nM (active)
[35]
  GI50: 165 nM (active)
[36]
  GI50: 156 nM (active)
[37]
  GI50: 25.7 nM (active)
[38]
  GI50: 258 nM (active)
[39]
  GI50: 198 nM (active)
[40]
  GI50: 59.6 nM (active)
[41]
  GI50: 259 nM (active)
[42]
  GI50: 72.6 nM (active)
[43]
  GI50: 102 nM (active)
[44]
  GI50: 118 nM (active)
[45]
  GI50: 979 nM (active)
[46]
  GI50: 118 nM (active)
[47]
  GI50: 77.8 nM (active)
[48]
  GI50: 220 nM (active)
[49]
  GI50: 138 nM (active)
[50]
  GI50: 62.2 nM (active)
[51]
  GI50: 213 nM (active)
[52]
  GI50: 26.3 nM (active)
[53]
  GI50: 119 nM (active)
[54]
  GI50: 18.9 nM (active)
[55]
  GI50: 171 nM (active)
[56]
  GI50: 217 nM (active)
[57]
  GI50: 162 nM (active)
[58]
  GI50: 469 nM (active)
[59]
  GI50: 87.3 nM (active)

## N#Cc1cc2c(n(C3OC(CO)C(O)C(O)C3O)c1=S)CCCCCC2 (stereo unspecified)
[1]
  GI50: > 100000 nM (inactive)
[2]
  GI50: > 100000 nM (inactive)
[3]
  GI50: > 100000 nM (inactive)
[4]
  GI50: > 100000 nM (inactive)
[5]
  GI50: > 100000 nM
[6]
  GI50: > 100000 nM (inactive)
[7]
  GI50: > 100000 nM (inactive)
[8]
  GI50: > 100000 nM (inactive)
[9]
  GI50: > 100000 nM (inactive)
[10]
  GI50: > 100000 nM (inactive)
[11]
  GI50: > 100000 nM (inactive)
[12]
  GI50: > 100000 nM (inactive)
[13]
  GI50: > 100000 nM (inactive)
[15]
  GI50: > 100000 nM (inactive)
[16]
  GI50: > 100000 nM (inactive)
[17]
  GI50: > 100000 nM (inactive)
[18]
  GI50: > 100000 nM (inactive)
[19]
  GI50: > 100000 nM (inactive)
[20]
  GI50: > 100000 nM (inactive)
[21]
  GI50: > 100000 nM (inactive)
[22]
  GI50: > 100000 nM (inactive)
[23]
  GI50: > 100000 nM (inactive)
[24]
  GI50: > 100000 nM (inactive)
[25]
  GI50: > 100000 nM (inactive)
[26]
  GI50: > 100000 nM (inactive)
[27]
  GI50: > 100000 nM (inactive)
[28]
  GI50: > 100000 nM (inactive)
[29]
  GI50: > 100000 nM (inactive)
[30]
  GI50: > 100000 nM (inactive)
[31]
  GI50: > 100000 nM (inactive)
[33]
  GI50: > 100000 nM (inactive)
[34]
  GI50: > 100000 nM (inactive)
[35]
  GI50: > 100000 nM (inactive)
[36]
  GI50: > 100000 nM (inactive)
[37]
  GI50: > 100000 nM (inactive)
[38]
  GI50: > 100000 nM (inactive)
[39]
  GI50: > 100000 nM (inactive)
[40]
  GI50: > 100000 nM (inactive)
[41]
  GI50: > 100000 nM (inactive)
[42]
  GI50: > 100000 nM (inactive)
[43]
  GI50: > 100000 nM (inactive)
[44]
  GI50: > 100000 nM (inactive)
[45]
  GI50: > 100000 nM (inactive)
[46]
  GI50: > 100000 nM (inactive)
[47]
  GI50: > 100000 nM (inactive)
[48]
  GI50: > 100000 nM (inactive)
[49]
  GI50: > 100000 nM (inactive)
[50]
  GI50: > 100000 nM (inactive)
[51]
  GI50: 80200 nM (inactive)
[52]
  GI50: > 100000 nM (inactive)
[53]
  GI50: > 100000 nM (inactive)
[54]
  GI50: > 100000 nM (inactive)
[55]
  GI50: > 100000 nM (inactive)
[56]
  GI50: > 100000 nM (inactive)
[57]
  GI50: > 100000 nM (inactive)
[58]
  GI50: > 100000 nM (inactive)
[59]
  GI50: > 100000 nM (inactive)
